The text below walks through data of paper PMC10582325 (Frontiers in Pharmacology, 2023).

Series [1] has as its target CYP3A4 (Homo sapiens, UniProt P08684). Conditions: for IC50: read-out: Inhibition, IC50, HLM.
The target in series [2] is T1, CYP2J2 (Homo sapiens, UniProt P51589).
T1 sequence (P51589 1-502): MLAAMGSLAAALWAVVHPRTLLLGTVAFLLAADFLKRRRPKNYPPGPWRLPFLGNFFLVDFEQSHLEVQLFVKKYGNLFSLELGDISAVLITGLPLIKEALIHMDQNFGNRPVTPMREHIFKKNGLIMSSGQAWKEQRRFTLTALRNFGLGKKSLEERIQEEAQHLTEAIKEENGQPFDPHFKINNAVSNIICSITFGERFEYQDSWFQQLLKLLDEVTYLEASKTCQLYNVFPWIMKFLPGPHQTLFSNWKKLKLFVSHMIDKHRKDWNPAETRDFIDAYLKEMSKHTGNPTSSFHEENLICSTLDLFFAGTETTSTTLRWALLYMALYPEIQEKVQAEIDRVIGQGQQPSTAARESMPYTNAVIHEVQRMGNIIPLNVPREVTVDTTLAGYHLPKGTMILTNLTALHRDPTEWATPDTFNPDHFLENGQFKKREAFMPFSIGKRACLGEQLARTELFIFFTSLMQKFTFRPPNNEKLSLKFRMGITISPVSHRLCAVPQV
Briefly: Direct CYP inhibition in human liver microsomes with marker probe substrates. Conditions: HLM, CYP2J2 probe substrate. The class given is in vitro ADME. As to the method: (§1) The direct inhibition potential of TBI-166 against P450 was determined using the human marker probe reactions for P450 enzymes in human liver microsomes. Briefly, substrate concentrations in the incubation mixture were selected to be around their Km. Eight different concentrations of TBI-166 (from 0.05 to 10 μM) were incubated in human liver microsomes respectively. Incubations were carried out at 37°C in a shaking water bath. The incubation mixtures contained HLM (0.5 mg/mL), probe substrates in the presence or absence of TBI-166 in PBS (100 mM, containing MgCl2 3 mM, pH 7.4). The reactions were initiated by adding NADPH (1 mM) after preincubated the above mixtures at 37°C for 5 min. Positive controls without TBI-166 were included simultaneously. Stock solutions of the test drugs were prepared in acetonitrile. All measurements were performed in triplicate. […] Protein was removed by centrifugation at 4,000 g for 20 min and analyzed by LC-MS/MS ([Li Z. et al., 2019]).
(§2) Metabolites of probe substrates were separated using a Gemini C18 column (2.1 × 50 mm, i. d, […] particle size; United States). […] The analytes and internal standard were detected by positive ion spray in the multiple-reaction-monitoring modes (MRM).
(§3) IC50 values were calculated using nonlinear regression analysis with GraphPad Prism 7 (GraphPad Software Inc., San Diego, CA). […] All data are expressed as the mean ± SD. […]
A general note: Microsomes from liver hold many membrane-bound enzymes, among them those of drug oxidation.

The target of series [3] is T2, CYP2B6 (Homo sapiens, UniProt P20813).
T2 sequence (P20813 1-491): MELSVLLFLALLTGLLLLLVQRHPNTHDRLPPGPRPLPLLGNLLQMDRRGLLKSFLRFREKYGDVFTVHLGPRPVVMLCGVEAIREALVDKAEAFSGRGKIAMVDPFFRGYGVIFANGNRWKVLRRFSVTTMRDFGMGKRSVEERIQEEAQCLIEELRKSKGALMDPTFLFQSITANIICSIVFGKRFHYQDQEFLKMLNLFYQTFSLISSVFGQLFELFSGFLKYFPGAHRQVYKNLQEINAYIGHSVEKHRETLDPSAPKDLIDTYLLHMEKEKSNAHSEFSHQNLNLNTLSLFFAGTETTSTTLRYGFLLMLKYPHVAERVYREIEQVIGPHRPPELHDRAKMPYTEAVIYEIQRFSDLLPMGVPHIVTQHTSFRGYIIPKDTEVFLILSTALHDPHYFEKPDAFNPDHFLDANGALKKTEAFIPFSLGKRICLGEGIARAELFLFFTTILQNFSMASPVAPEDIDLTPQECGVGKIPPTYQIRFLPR
The description is as above. The settings on record: HLM, CYP2B6 probe substrate. It is filed as in vitro ADME. As for the experimental part: as §1, §2, §3

Series [4] has as its target T3, CYP1A2 (Homo sapiens, UniProt P05177).
T3 sequence (P05177 1-516): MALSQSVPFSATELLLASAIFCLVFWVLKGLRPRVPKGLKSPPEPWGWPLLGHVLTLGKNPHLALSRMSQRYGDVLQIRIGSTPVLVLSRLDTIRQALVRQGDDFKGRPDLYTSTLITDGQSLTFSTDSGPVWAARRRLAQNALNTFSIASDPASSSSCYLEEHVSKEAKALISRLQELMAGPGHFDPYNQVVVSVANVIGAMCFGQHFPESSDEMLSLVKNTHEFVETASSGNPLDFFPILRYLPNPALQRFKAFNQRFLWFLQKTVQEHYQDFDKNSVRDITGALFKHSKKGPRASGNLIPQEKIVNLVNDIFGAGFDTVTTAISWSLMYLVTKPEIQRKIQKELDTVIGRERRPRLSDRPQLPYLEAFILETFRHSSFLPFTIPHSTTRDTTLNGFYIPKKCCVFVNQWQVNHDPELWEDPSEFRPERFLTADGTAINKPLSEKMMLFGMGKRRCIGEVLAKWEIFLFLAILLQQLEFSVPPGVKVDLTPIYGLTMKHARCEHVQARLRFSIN
The series is described as above. Conditions: read-out: Inhibition, IC50; HLM, CYP1A2 probe substrate.

Read-outs that look alike come from different tables or passages of the source. Some results are limits rather than exact numbers.

Chain of CYP3A4 (P08684 2-503): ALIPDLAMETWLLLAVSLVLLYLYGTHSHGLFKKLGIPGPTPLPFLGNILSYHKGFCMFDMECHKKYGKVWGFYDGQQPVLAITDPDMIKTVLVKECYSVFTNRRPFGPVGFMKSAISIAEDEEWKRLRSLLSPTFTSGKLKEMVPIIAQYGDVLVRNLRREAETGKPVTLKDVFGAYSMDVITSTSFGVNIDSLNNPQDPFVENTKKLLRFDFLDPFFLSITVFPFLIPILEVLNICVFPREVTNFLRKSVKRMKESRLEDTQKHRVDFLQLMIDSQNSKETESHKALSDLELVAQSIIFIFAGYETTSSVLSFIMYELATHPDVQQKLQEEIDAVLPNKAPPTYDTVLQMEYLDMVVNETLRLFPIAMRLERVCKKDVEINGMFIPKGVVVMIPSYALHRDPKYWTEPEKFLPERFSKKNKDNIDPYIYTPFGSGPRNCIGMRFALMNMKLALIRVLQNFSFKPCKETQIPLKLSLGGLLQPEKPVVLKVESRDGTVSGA

Consider `COc1ncccc1Nc1cc2nc3ccccc3n(-c3ccc(OC(F)(F)F)cc3)c-2cc1=NC1CCC(OC)CC1` (stereo not drawn) [TBI-166, Pyrifazimine], for which the “inhibitor strength class for CYP3A4 pathway” value in series [1] (based on IC50 with testosterone) is given as “moderate (1 µM < IC50 < 10 µM)”. The IC50 in series [1] (CYP3A4 MDZ (midazolam as probe substrate)) was 17.4 µM; in series [1] (CYP3A4 TEST (testosterone as probe substrate)), 2.65 µM; in series [2] it was > 50 µM; in series [3] it was 4.35 µM; in series [4], 0.55 µM.

The IC50 is the midpoint of a concentration-inhibition curve.
